Source: US5019582A, “Piperidine compounds and their preparation and use” (Novo Nordisk A/S, priority 1986, dated 1991)
≈ marks a conversion by molar mass, not a printed value. Counter-ions that a name gives are not always drawn.

Assays:
[1] = tested on: voltage operated calcium channels; assay: inhibition of depolarization-stimulated 45Ca uptake into brain synaptosomes; format: biochemical, male Wistar rat; details: inhibition of K+-stimulated 45Ca uptake, rat cerebral cortex synaptosomes (P2), 15 s incubation
From the text: The pharmacological properties of the compounds of the invention can be illustrated by determining their capability to inhibit calcium uptake into brain synaptosomes.
Depolarization of neuronal membranes leads to an opening of socalled `voltage operated calcium channels` (VOC) in the membranes which allows a massive influx of calcium from the extracellular space. A crude synaptosomal preparation (socalled P2 fraction) contains small vesicles surrounded by neuronal membrane and it is possible in such a preparation to study a depolarization-induced opening of VOC.
A male Wistar rat is decapitated and the cerebral cortex removed and homogenized in 20 ml. of ice-cold 0.32 M sucrose using a glass homogenizer with a teflon pestle. All subsequent steps for isolation of synaptosomes are done at 0°-4° C. The homogenate is centrifuged at 1000×g for 10 min and the resulting supernatant is re-centrifuged at 18000×g for 20 min. This pellet (P2) is resuspended in 0.32 M sucrose (10 ml per g of original tissue) with a teflon pestle.
The tubes are pre-incubated for 30 min on ice and then for 6 min at 37° C. in a water bath.
The incubation is continued for 15 s.
The amount of radioactivity on the filter disc is determined by liquid scintillation spectrometry.
Test substances are dissolved in 10 ml of 48% ethanol at a concentration of 0.44 mg/ml. Dilutions are made in 48% ethanol to give final concentrations of 0.1, 0.3, 1, 3 and 0 10 μg/ml. Experiments are performed in duplicate. Controls for depolarized and nondepolarized samples are included in the assay and test substances are only tested in depolarized samples.
The IC50 value is estimated from dose response curves.

[2] = tested on: peripheral calcium uptake, e.g. in blood vessels and the heart; details: cited from earlier work

SMILES | IC50 [1] [µg/mL] | activity against peripheral calcium uptake [2]
CCCCN1CC[C@@H](c2ccc(F)cc2)[C@H](COc2ccc(OC)cc2)C1 (single isomer, unassigned) | 2.3 (≈ 6.19 µM) | 
CCCCCN1CC[C@@H](c2ccc(F)cc2)[C@H](COc2ccc3c(c2)CCCC3)C1 (single isomer, unassigned) | 0.4 (≈ 0.977 µM) | 
COc1ccc(OC[C@@H]2CN(C(C)C)CC[C@H]2c2ccc(F)cc2)cc1.Cl (single isomer, unassigned) [(-)-trans-1-isopropyl-4-(4-fluorophenyl)-3-(4-methoxyphenoxymethyl)-piperidine hydrochloride] | 4.3 | 
COc1ccc(CCN(C)CCCC(C#N)(c2ccc(OC)c(OC)c2)C(C)C)cc1OC (stereo not drawn) [Verapamil] |  | have activity
COc1ccc([C@@H]2Sc3ccccc3N(CCN(C)C)C(=O)[C@@H]2OC(C)=O)cc1 [Diltiazem] |  | have activity
CCCCCN1CC[C@@H](c2ccc(F)cc2)[C@H](COc2ccc3c(c2)OCO3)C1 (single isomer, unassigned) | 1.5 (≈ 3.75 µM) | 
CCN1CC[C@@H](c2ccc(F)cc2)[C@H](COc2ccc(C(C)(C)C)cc2)C1.Cl (relative stereo) [trans-1-ethyl-4-(4-fluorophenyl)-3-(4-t-butylphenoxymethyl)piperidine hydrochloride] | 2.5 | 
COC(=O)C1=C(C)NC(C)=C(C(=O)OC)C1c1ccccc1[N+](=O)[O-] [Nifedipin] |  | have activity
CCCCCCCCN1CC[C@@H](c2ccc(F)cc2)[C@H](COc2ccc3c(c2)OCO3)C1 (single isomer, unassigned) [(-)-trans-4-(-4-fluoropheny1)-3-(3,4-methylenedioxyphenoxymethyl)-1-octylpiperidine hydrochloride] | 2.2 | 
C=CCN1CC[C@@H](c2ccc(F)cc2)[C@H](COc2ccc3c(c2)OCO3)C1 (single isomer, unassigned) [(-)--trans-4-(-4-fluorophenyl)-3-(3,4-methylenedioxyphenoxymethyl)-1-allyl-piperidine hydrochloride] | 0.8 | 
CCCCCN1CC[C@@H](c2ccccc2)[C@H](COc2ccc3c(c2)OCO3)C1 (single isomer, unassigned) | 2.4 (≈ 6.29 µM) | 
CCCCN1CC[C@@H](c2ccc(F)cc2)[C@H](COc2ccc3c(c2)OCO3)C1 (single isomer, unassigned) | 1.9 (≈ 4.93 µM) | 
